Experimental data: patent US10131652B2, “Pyrimidinyloxy benzene derivatives as herbicides” (E. I. DU PONT DE NEMOURS AND COMPANY, priority 2014, dated 2018)

How the values were obtained:
Type in all cases: in vivo
[1] = tested on: wheat (Triticum aestivum); experiment: Test B pre-/postemergence plant response
Method in brief: (§1)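 Visual injury scores on a 0–100 scale (100 = complete control) relative to untreated plants, taken about 10 days post-treatment in greenhouse. Treatments were a directed preemergence soil spray and a postemergence spray at one- to two-leaf stage, using surfactant-containing solvent formulation.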

corn (Zea mays) = experiment: Test B pre-/postemergence plant response
Method in brief: as §1

[2] = tested on: pigweed (Amaranthus retroflexus); experiment: Test B pre-/postemergence plant response
Method in brief: as §1

[3] = tested on: giant foxtail (Setaria faberii); experiment: Test B pre-/postemergence plant response
Method in brief: as §1

[4] = tested on: barnyardgrass (Echinochloa crus-galli); experiment: Test B pre-/postemergence plant response
Method in brief: as §1

[5] = tested on: large (Lg) crabgrass (Digitaria sanguinalis); experiment: Test D pre-/postemergence plant response; conditions: Postemergence; for Plant response rating, Crabgrass, Large: scale 0 to 100, 0 no effect, 100 complete control
Method in brief: (§2)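 Two application timings were run together: preemergence onto seeded loam–sand pots, and postemergence onto 1- to 4-leaf plants (2 to 18 cm) in peat/vermiculite medium with starter nutrients. Formulation was a non-phytotoxic solvent with surfactant. Ratings, 0 to 100, were made visually versus controls after 13 to 15 greenhouse days.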

[6] = tested on: winter wheat (Triticum aestivum); experiment: Test D pre-/postemergence plant response; conditions: Postemergence
Method in brief: as §2

[7] = tested on: blackgrass (Alopecurus myosuroides); experiment: Test D pre-/postemergence plant response; conditions: Postemergence; for Plant response rating, Blackgrass: scale 0 to 100, 0 no effect, 100 complete control
Method in brief: as §2

[8] = tested on: johnsongrass (Sorghum halepense); experiment: Test D pre-/postemergence plant response; conditions: Postemergence; for Plant response rating, Johnsongrass: scale 0 to 100, 0 no effect, 100 complete control
Method in brief: as §2

[9] = tested on: galium (catchweed bedstraw, Galium aparine); experiment: Test D pre-/postemergence plant response; conditions: Postemergence; for Plant response rating, Galium: scale 0 to 100, 0 no effect, 100 complete control
Method in brief: as §2

[10] = tested on: lambsquarters (Chenopodium album); experiment: Test D pre-/postemergence plant response; conditions: Postemergence
Method in brief: as §2

[11] = tested on: velvetleaf (Abutilon theophrasti); experiment: Test D pre-/postemergence plant response; conditions: Postemergence
Method in brief: as §2

[12] = tested on: small-flower umbrella sedge (Cyperus difformis); experiment: Test C flooded paddy test plant response; conditions: Flood, 250 g ai/ha; scale of 0 to 100 where 0 is no effect and 100 is complete control; 13 to 15 days
Method in brief: (§3)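 Flooded-pot format, 3 cm water over soil maintained for the test duration; test compounds dispensed into the water at the 2-leaf stage. Greenhouse holding 13 to 15 days. Plants evaluated visually relative to untreated controls, 0 meaning no effect and 100 complete control.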

[13] = tested on: ducksalad (Heteranthera limosa); experiment: Test C flooded paddy test plant response; conditions: Flood, 250 g ai/ha; scale of 0 to 100 where 0 is no effect and 100 is complete control; 13 to 15 days
Method in brief: as §3

rice (Oryza sativa) = experiment: Test C flooded paddy test plant response; conditions: Flood, 250 g ai/ha; scale of 0 to 100 where 0 is no effect and 100 is complete control; 13 to 15 days
Method in brief: as §3

[14] = tested on: barnyardgrass (Echinochloa crus-galli); experiment: Test C flooded paddy test plant response; conditions: Flood, 250 g ai/ha; scale of 0 to 100 where 0 is no effect and 100 is complete control; 13 to 15 days
Method in brief: as §3

[15] = 125 g ai/ha, postemergence, 0 to 100 scale, 0 no effect, 100 complete control
[16] = Postemergence, 31 g ai/ha, 0 to 100 scale (0 no effect, 100 complete control)
[17] = 31 g ai/ha, Preemergence, 0 to 100 scale where 0 is no effect and 100 is complete control
[18] = Preemergence, 125 g ai/ha, 0 to 100 scale (0 no effect, 100 complete control)
[19] = 31 g ai/ha, scale 0 to 100 (0 no effect, 100 complete control)
[20] = 62 g ai/ha, scale 0 to 100, 0 no effect, 100 complete control
[21] = 125 g ai/ha, scale 0 to 100, 0 no effect, 100 complete control

Structure (SMILES): FC(F)c1cc(-c2ccccc2Oc2ncc(Br)cn2)on1 [Compound 212]
- Plant response rating, Wheat [1, 15]: 10
- Plant response rating, Wheat [1, 16]: 0
- Plant response rating, Corn (corn (Zea mays); [15]): 20
- Plant response rating, Corn (corn (Zea mays); [16]): 10
- Plant response rating, Pigweed [2, 17]: 100
- Plant response rating, Pigweed [2, 15]: 100
- Plant response rating, Pigweed [2, 16]: 90
- Pigweed plant response rating [2, 18]: 100
- Plant response rating, Foxtail, Giant [3, 17]: 60
- Plant response rating, Foxtail, Giant [3, 15]: 70
- Plant response rating, Foxtail, Giant [3, 16]: 10
- Foxtail, Giant plant response rating [3, 18]: 100
- Plant response rating, Barnyardgrass [4, 17]: 10
- Plant response rating, Barnyardgrass [4, 15]: 30
- Plant response rating, Barnyardgrass [4, 16]: 0
- Barnyardgrass plant response rating [4, 18]: 60
- Plant response rating (scale 0 to 100), Crabgrass, Large ([5]; 16 g ai/ha): 5
- Crabgrass, Large plant response rating [5, 19]: 10
- Plant response rating, Crabgrass, Large ([5]; 62 g ai/ha): 10
- Plant response rating, Crabgrass, Large ([5]; 125 g ai/ha): 15
- Plant response rating (scale 0 to 100), Wheat ([6]; 16 g ai/ha): 0
- Wheat plant response rating [6, 19]: 5
- Wheat plant response rating [6, 20]: 5
- Plant response rating, Wheat [6, 21]: 15
- Plant response rating (scale 0 to 100), Blackgrass ([7]; 16 g ai/ha): 0
- Blackgrass plant response rating [7, 19]: 0
- Plant response rating, Blackgrass ([7]; 62 g ai/ha): 0
- Plant response rating, Blackgrass ([7]; 125 g ai/ha): 10
- Plant response rating (scale 0 to 100), Johnsongrass ([8]; 16 g ai/ha): 5
- Johnsongrass plant response rating [8, 19]: 5
- Plant response rating, Johnsongrass ([8]; 62 g ai/ha): 20
- Plant response rating, Johnsongrass ([8]; 125 g ai/ha): 20
- Plant response rating (scale 0 to 100), Galium ([9]; 16 g ai/ha): 60
- Galium plant response rating [9, 19]: 60
- Plant response rating, Galium ([9]; 62 g ai/ha): 65
- Plant response rating, Galium ([9]; 125 g ai/ha): 80
- Plant response rating (scale 0 to 100), Lambsquarters ([10]; 16 g ai/ha): 40
- Lambsquarters plant response rating [10, 19]: 80
- Lambsquarters plant response rating [10, 20]: 98
- Plant response rating, Lambsquarters [10, 21]: 98
- Plant response rating (scale 0 to 100), Velvetleaf ([11]; 16 g ai/ha): 20
- Velvetleaf plant response rating [11, 19]: 50
- Velvetleaf plant response rating [11, 20]: 60
- Plant response rating, Velvetleaf [11, 21]: 90
- Sedge, Umbrella plant response rating [12]: 75
- Ducksalad plant response rating [13]: 75
- Rice plant response rating (rice (Oryza sativa)): 20
- Barnyardgrass plant response rating [14]: 0
